From patent US20230338363A1, “COMBINATION CHEMO-IMMUNOTHERAPY FOR PANCREATIC CANCER USING THE IMMUNOGENIC EFFECTS OF AN IRINOTECAN SILICASOME NANOCARRIER PLUS ANTI-PD-1” (The Regents of the University of California, priority 2020, published 2023)
Where a name gives a salt, the structure may show the parent alone.

Assays:
KPC tumor = experiment: Vaccination experiment with dying chemo-treated KPC cells; format: in vivo, mouse
Procedure: The vaccination schedule is highlighted in FIG. 2, panel C. Eight million KPC cells were seeded in a tissue culture dish. After cellular attachment, IRIN (300 µM or OX (500 µM were added for 24 h. Cells were collected and washed before resuspended in 0.8 mL cold PBS. For vaccination, each mouse received subcutaneous (SC) injection of a 100 µL suspension of chemo-treated cells in the right flank. Control animals received SC injection with 0.1 mL PBS. The vaccination was repeated after 7 days. Fourteen days after the 1st injection, the animals received SC injection of normal KPC cells (1 million cells in 0.1 mL PBS) in the contralateral (left) flank. Tumor growth was measured by a digital caliper every 2-3 days, and the tumor volume calculated according to the formula: length × width^2 /2. Animals were sacrificed on day 26 and the tumors were collected, weighed and fixed in 10% formalin, followed by paraffin embedding and sectioning to derive to 4 µm thick slices for IHC analysis. Primary antibodies to CD8 (#14-0808-82) and FoxP3 (#13-5773-82) were purchased from ThermoFisher. IHC staining was performed in the UCLA Translational Pathology Core Laboratory (TPCL). The slides were scanned and images assessed by using Aperio ImageScope software (Leica).

[1] = pKa and % protonated drug (Henderson-Hasselbalch equation); format: physicochemical
Procedure: FIG. 9, panels A-D, illustrates a dose- and time-dependent study on IRIN-induced lysosomal alkalization effect in KPC cells. Panel A) Dose-dependence. KPC cells were treated with indicated free IRIN dose for 24 hours, followed by DND 99 and Hoechst dye co-staining, similar to FIG. 1, panel C. We were able to discern a major signal drop at 20 µM. IRIN accumulation in the KPC cells is indicated by white arrows. Panel B) Time-dependence. KPC cells were treated using 300 µM free IRIN for indicated time period, followed by DND 99/Hoechst co-staining, similar to panel A. We were able to observe a major DND 99 signal drop as early as 1 h post incubation. Quantification of DND 99 fluorescence intensity in panels A and B higher presented in FIG. 1, panel D. Panel C) Similar to the experiment described in FIG. 1, panel C, KPC cells were exposed to IRIN (300 µM) or chloroquine (CQ, 32 µM) for 24 h. The disappearance of the red fluorescence staining in the acidifying organellar environment in IRIN- and CQ-treated cells is as a result of the alkalization effect of these weak-base molecules. Bars are 10 µm. Panel D) The Henderson-Hasselbalch (H—H) equation allows calculation of % protonated drug at different pH values. Although 83.3% of IRIN molecules are protonated at pH 7.4, the equilibrium shifts to ~99% of the molecules at a lysosomal relevant pH ~4.5-5.5. […]

KPC cells = experiment: CRT expression (flow cytometry), HMGB1 release (ELISA) and ATP release; format: cell-based, mouse
Procedure: 7.5×10^4 KPC cells were seeded into 24-well plates. After cell attachment, KPC cells were treated with IRIN (300 µM), OX (500 µM), DOX (20 µM or PTX (12 µM for 24 h. The cell culture media were collected in 1.5 mL tube and spun down (2,000 rpm for 5 min) to collect the supernatants for HMGB1 detection by an ELISA kit (Catalog# ST51011, IBL International GmbH). Surface CRT expression was measured by flow cytometry in the same experiment, as previously described. ^[27] Briefly, the loosely attached cells were combined with trypsin-treated adhered cells. The cells were washed in cold PBS and then stained with a primary anti-CRT antibody (Abcam, ab2907, 1: 140) in 200 µL BD staining buffer for 0.5 h on ice. The cells were washed in cold PBS and stained with an Alexa Fluor® 680-conjugated secondary antibody (LifeScience Technologies #A21244) for 30 min on ice. After washing in cold PBS, the cells were assessed in a LSRII flow cytometer (BD Biosciences).

CCc1c2c(nc3ccc(OC(=O)N4CCC(N5CCCCC5)CC4)cc13)-c1cc3c(c(=O)n1C2)COC(=O)[C@]3(O)CC [IRIN, Irinotecan hydrochloride trihydrate]
growth of tumor on the opposite flank vs PBS control (KPC tumor; KPC cells treated with 300 µM IRIN or 500 µM OX, p <0.05): improved the shrinkage of the tumor on the opposite flank significantly | tumor disappearance at harvesting (KPC tumor; day 26): total tumor disappearance in one IRIN-treated animal | CD8+ staining number (IHC) (KPC tumor; harvested tumors, day 26): no significant increase | CD8+/Treg cells ratio (IHC) (KPC tumor; harvested tumors, day 26): significantly (p <0.01) increased | FoxP3+ expression (IHC) (KPC tumor; harvested tumors, day 26): significantly (p<0.01) decreased | % of molecules protonated ([1]; lysosomal relevant pH ~4.5-5.5): ~ 99% | % of molecules protonated ([1]; pH 7.4): 83.3% | ATP release (KPC cells): could not demonstrate an increase in ATP release | CRT expression and HMGB1 release (KPC cells; IRIN 300 µM, 24 h): strong inducer of both responses
